From ChEMBL document CHEMBL3046164, “A facile synthesis of some 3-cyano-1,4,6-trisubstituted-2(1H)-pyridinones and their biological evaluation as anticancer agents” (2011)

Experiments:
Format in all cases: functional
HOP-92 = test: Growth inhibition of Homo sapiens (human) HOP92 cells at 10 uM after 48 hr by SRB assay; details: HOP-92, 48 h, read-out: GI
UO-31 = test: Growth inhibition of Homo sapiens (human) UO31 cells at 10 uM after 48 hr by SRB assay; details: UO-31, 48 h, read-out: GI
K562 = test: Growth inhibition of Homo sapiens (human) K562 cells at 10 uM after 48 hr by SRB assay; details: K562, 48 h, read-out: GI
OVCAR-5 = test: Growth inhibition of Homo sapiens (human) OVCAR5 cells at 10 uM after 48 hr by SRB assay; details: OVCAR-5, 48 h, read-out: GI
HL-60(TB) = test: Growth inhibition of Homo sapiens (human) HL-60(TB) cells at 10 uM after 48 hr by SRB assay; details: HL-60, 48 h, read-out: GI
MOLT-4 = test: Growth inhibition of Homo sapiens (human) MOLT4 cells at 10 uM after 48 hr by SRB assay; details: MOLT-4, 48 h, read-out: GI
CCRF-CEM = test: Growth inhibition of Homo sapiens (human) CCRF-CEM cells at 10 uM after 48 hr by SRB assay; details: read-out: GI
A498 = test: Growth inhibition of Homo sapiens (human) A498 cells at 10 uM after 48 hr by SRB assay; details: A498, 48 h, read-out: GI
BT-549 = test: Growth inhibition of Homo sapiens (human) BT549 cells at 10 uM after 48 hr by SRB assay; details: BT-549, 48 h, read-out: GI
SR = test: Growth inhibition of Homo sapiens (human) SR cells at 10 uM after 48 hr by SRB assay; details: read-out: GI
CAKI-1 = test: Growth inhibition of Homo sapiens (human) CAKI-1 cells at 10 uM after 48 hr by SRB assay; details: CAKI-1, 48 h, read-out: GI
RPMI-8226 = test: Growth inhibition of Homo sapiens (human) RPMI8226 cells at 10 uM after 48 hr by SRB assay; details: RPMI-8226, 48 h, read-out: GI
MDA-MB-468 = test: Growth inhibition of Homo sapiens (human) MDA-MB-468 cells at 10 uM after 48 hr by SRB assay; details: MDA-MB-468, 48 h, read-out: GI
PC-3 = test: Growth inhibition of Homo sapiens (human) PC3 cells at 10 uM after 48 hr by SRB assay; details: PC-3, 48 h, read-out: GI
NCI-H23 = test: Growth inhibition of Homo sapiens (human) NCI-H23 cells at 10 uM after 48 hr by SRB assay; details: NCI-H23, 48 h, read-out: GI

SMILES | inhibition of growth at 10 µM (HOP-92) [%] | inhibition of growth at 10 µM (K562) [%] | inhibition of growth at 10 µM (CCRF-CEM) [%] | also measured
Cn1cccc1-c1cc(-c2ccc(Br)cc2)n(C=O)c(=O)c1C#N | 24.2 | 54.8 |  | inhibition of growth at 10 µM (UO-31): 29.7%; inhibition of growth at 10 µM (OVCAR-5): 26.9%
COc1ccc(-c2cc(-c3cccn3C)c(C#N)c(=O)n2C=O)cc1OC |  | 21.4 | 47.1 | inhibition of growth at 10 µM (HL-60(TB)): 57.1%; inhibition of growth at 10 µM (MOLT-4): 28.5%
Cn1cccc1-c1cc(-c2ccc(Br)cc2)n(N=O)c(=O)c1C#N | 28.2 |  |  | inhibition of growth at 10 µM (A498): 25.7%; inhibition of growth at 10 µM (BT-549): 32.8%; inhibition of growth at 10 µM (SR): 37.5%
COc1ccc(-c2cc(-c3cccn3C)c(C#N)c(=O)n2N=O)cc1OC | 26.8 | 26.6 |  | 
COc1ccc(-c2cc(-c3cccs3)n(N=O)c(=O)c2C#N)cc1 | 36.2 | 65.8 | 42 | 
COc1ccc(-c2cc(-c3cccn3C)c(C#N)c(=O)n2C(=S)Nc2ccc(F)cc2)cc1OC |  | 26.9 |  | inhibition of growth at 10 µM (CAKI-1): 31.1%; inhibition of growth at 10 µM (SR): 27.8%
CCn1c(-c2ccc(Br)cc2)cc(-c2cccn2C)c(C#N)c1=O | 28.3 |  | 62.5 | inhibition of growth at 10 µM (RPMI-8226): 35%; inhibition of growth at 10 µM (MDA-MB-468): 30%; inhibition of growth at 10 µM (PC-3): 28%
Cn1cccc1-c1cc(-c2ccc(Br)cc2)n(Cc2ccccc2)c(=O)c1C#N | 44.7 | 45.4 | 39.5 | inhibition of growth at 10 µM (RPMI-8226): 38.2%; inhibition of growth at 10 µM (PC-3): 32.5%
CCn1c(-c2ccc(OC)c(OC)c2)cc(-c2cccn2C)c(C#N)c1=O | 29 | 63.5 | 43.7 | inhibition of growth at 10 µM (A498): 44%
COc1ccc(-c2cc(-c3cccn3C)c(C#N)c(=O)n2Cc2ccccc2)cc1OC |  |  |  | inhibition of growth at 10 µM (RPMI-8226): 64.1%
COc1ccc(-c2cc(-c3cccs3)n(Cc3ccccc3)c(=O)c2C#N)cc1 | 26.8 | 50.4 |  | inhibition of growth at 10 µM (UO-31): 23.5%; inhibition of growth at 10 µM (NCI-H23): 21%
Cn1cccc1-c1cc(-c2ccc(Br)cc2)n(S(=O)(=O)c2ccccc2)c(=O)c1C#N | 26 | 22.5 | 55.9 | inhibition of growth at 10 µM (NCI-H23): 22.2%; inhibition of growth at 10 µM (HL-60(TB)): 59.7%; inhibition of growth at 10 µM (MOLT-4): 26.6%
